From patent US20080194548A1, “Drug Combination Therapy and Pharmaceutical Compositions for Treating Inflammatory Disorders” (priority 2005, published 2008)

Assays:
Female C57BL/6 mice = assay: MOGp35-55-induced disease activity model in mice (oral gavage, daily disease activity score); format: in vivo; conditions: single agent; for maximal extent and duration of disease activity: compared with control animals; for onset of disease symptoms: low and high doses, compared to animals that receive vehicle
[1] = tested on: inducible nitric oxide synthetase (i-NOS); conditions: microglia and astrocytes; cited from earlier work
cytokine TNFα = conditions: microglia and astrocytes; cited from earlier work
[2] = tested on: monocyte chemoattractant protein 1 (MCP1); conditions: human peripheral blood mononuclear cells or cultured endothelial cells; cited from earlier work

SMILES	maximal extent and duration of disease activity (Female C57BL/6 mice)	onset of disease symptoms (Female C57BL/6 mice)	inhibition of inducible nitric oxide synthetase (i-NOS) [1]	inhibition of the cytokine TNFα (cytokine TNFα)	inhibition of MCP1 production [2]
CC(C)[C@]1(C(=O)N2COc3ccc(C(F)(F)F)cc3C2)CC[C@@H](N2CC[C@@H](c3cccc(C(=O)O)c3)[C@H](C)C2)C1 (single isomer, unassigned) [Compound 4, 3-[(3S,4R or 3R,4S)-1-((1R,3S)-3-Isopropyl-3-{[6-(trifluoromethyl)-2H-1,3-benzoxazin-3(4H)-yl]carbonyl}cyclopentyl)-3-methylpiperidin-4-yl]benzoic acid]	reduced compared with control animals	delayed in a dose-dependent manner			
CO[C@@H]1COCC[C@@H]1N[C@@H]1CC[C@@](C(=O)N2CCc3ncc(C(F)(F)F)cc3C2)(C(C)C)C1 [Compound 1, N-((1R,3S)-3-isopropyl-3-{[3-(trifluoromethyl)-7,8-dihydro-1,6-naphthyridin-6(5H)-yl]carbonyl}cyclopentyl)-N-[(3S,4S)-3-methoxytetrahydro-2H-pyran-4-yl]amine]	reduced compared with control animals	delayed in a dose-dependent manner			
CC[C@H](C)C(=O)O[C@H]1C[C@@H](C)C=C2C=C[C@H](C)[C@H](CC[C@@H]3C[C@@H](O)CC(=O)O3)[C@H]21 [Lovastatin, lovastatin]			inhibit	inhibit	inhibit
CC(C)c1c(C(=O)Nc2ccccc2)c(-c2ccccc2)c(-c2ccc(F)cc2)n1CC[C@@H](O)C[C@@H](O)CC(=O)O [atorvastatin]	reduced compared with control animals	delayed in a dose-dependent manner			
